Results reported in ChEMBL document CHEMBL3271945, “Azabicyclo chemistry. 6. An investigation of one of the chemical parameters for analgetic activity. Synthesis of 2-methyl-2-azabicyclo[3.3.1]non-6-ene and -non-7-ene” (J Med Chem, 1977).
Calls of active or inactive are those of the source. The calls are words filed in the database; no cut-off is given here.

Columns and labels:
Mus musculus [1] = experiment: Analgetic activity in sc dosed mouse by hot-plate method; format: functional
Mus musculus [2] = experiment: Analgetic activity in mouse at 100 mg/kg, sc by hot-plate method; format: functional, organism-based; set-up: dose 100 mg/kg
Mus musculus [3] = experiment: Toxicity in mouse at 100 mg/kg, sc; format: organism-based; set-up: dose 100 mg/kg, route subcutaneous; conditions: in vivo
Mus musculus [4] = experiment: Analgetic activity in mouse at 50 mg/kg, sc by hot-plate method; format: functional, organism-based; set-up: dose 50 mg/kg

| SMILES | ED50 (Mus musculus [1]) | other results |
| --- | --- | --- |
| CN1CC[C@]23c4c5ccc(O)c4O[C@H]2[C@@H](O)C=C[C@H]3[C@H]1C5 [MORPHINE] | 1.2 mg/kg | – |
| CN1CC[C@H]2C[C@H]1Cc1ccc(O)cc12 | 4.5 mg/kg | – |
| CN1CCC2CC(=O)CC1C2 (stereo not drawn) | 40 mg/kg | – |
| CN1CCC2CC1C[C@@H](O)C2 (stereo partly drawn) | – | Activity (Mus musculus [2]): inactive |
| CN1CC[C@@]2(C)C[C@H]1Cc1ccccc12 | 11 mg/kg | – |
| CN1CC[C@@H]2C=CC[C@@H]1C2 | – | Activity (Mus musculus [3]): Toxic; Activity (Mus musculus [4]): inactive |
| CN1CC[C@@H]2CC=C[C@@H]1C2 | – | Activity (Mus musculus [2]): inactive |
